Data on six compounds can be found in PMC5148701 (Journal of medicinal chemistry, 2016).

“And” between values parts separate entries of the source, which are not always exact repeats. Equal values may be shown once. “Also recorded” adds a separate entry of the source. Read-outs that look alike come from different tables or passages of the source.

For one experiment, the target named is 5-HT2A (Homo sapiens, UniProt P28223). In words: Radioligand binding, 5-HT2A.
The target of the next experiment is D3R (Homo sapiens, UniProt P35462). Nature of the experiment: Radioligand binding, D3R.
A further experiment concerns the target D2L receptors (Homo sapiens, UniProt P14416). Nature of the experiment: D2R β-arrestin-2 recruitment Tango assay. Type of experiment: cell-based. Particulars: for Emax: HTLA, read-out: β-arrestin Emax (%); for EC50: β-arrestin EC50 (nM). For orientation: Activated receptors often draw arrestin, which recruitment assays turn into a signal.
The target in another experiment is 5-HT1B (Homo sapiens, UniProt P28222). Nature of the experiment: Radioligand binding, 5-HT1B.
The target of the next experiment is mouse D2Long (Mus musculus, UniProt P61168). Nature of the experiment: BRET β-arrestin-2 recruitment assay with GRK2 co-expression. The class given is cell-based. Particulars: for β-arrestin-2 recruitment agonist activity in BRET assay: up to 1 µM, GRK2 co-expressed.
Another experiment deals with hD2L receptors (Homo sapiens, UniProt P14416). Nature of the experiment: D2R Gi/o-mediated cAMP inhibition assay. Particulars: for cAMP Emax (%): HEK293T cells, GloSensor-22F; for Emax: HEK-293T. Type of experiment: cell-based.
A further experiment concerns the target 5-HT2B (Homo sapiens, UniProt P41595). In words: Radioligand binding, 5-HT2B.
The next experiment addresses 5-HT1D (Homo sapiens, UniProt P28221). Nature of the experiment: Radioligand binding, 5-HT1D.
The target in another experiment is T1, D4R (Homo sapiens, UniProt P21917).
T1 sequence (P21917 1-419): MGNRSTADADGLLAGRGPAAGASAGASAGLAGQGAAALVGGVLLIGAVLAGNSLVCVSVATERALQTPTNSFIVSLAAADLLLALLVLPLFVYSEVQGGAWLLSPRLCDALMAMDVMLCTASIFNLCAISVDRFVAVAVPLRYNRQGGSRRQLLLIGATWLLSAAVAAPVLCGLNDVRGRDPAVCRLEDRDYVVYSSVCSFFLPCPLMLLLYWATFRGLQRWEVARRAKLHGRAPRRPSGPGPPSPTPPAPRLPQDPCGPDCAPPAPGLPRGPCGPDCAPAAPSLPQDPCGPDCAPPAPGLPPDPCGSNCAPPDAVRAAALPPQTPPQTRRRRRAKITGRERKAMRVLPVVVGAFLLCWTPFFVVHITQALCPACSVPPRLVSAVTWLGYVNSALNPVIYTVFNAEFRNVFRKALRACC
Nature of the experiment: Radioligand binding, D4R.

In a further experiment the target is D2R (Homo sapiens, UniProt P14416). In words: Radioligand binding, D2R.
A further experiment has as its target 5-HT7 (Homo sapiens, UniProt P34969). Nature of the experiment: Radioligand binding, 5-HT7.
A further experiment has as its target D5R (Homo sapiens, UniProt P21918). In words: Radioligand binding, D5R.
The target of another experiment is T2, 5-HT1A (Homo sapiens, UniProt P08908).
T2 sequence (P08908 1-422): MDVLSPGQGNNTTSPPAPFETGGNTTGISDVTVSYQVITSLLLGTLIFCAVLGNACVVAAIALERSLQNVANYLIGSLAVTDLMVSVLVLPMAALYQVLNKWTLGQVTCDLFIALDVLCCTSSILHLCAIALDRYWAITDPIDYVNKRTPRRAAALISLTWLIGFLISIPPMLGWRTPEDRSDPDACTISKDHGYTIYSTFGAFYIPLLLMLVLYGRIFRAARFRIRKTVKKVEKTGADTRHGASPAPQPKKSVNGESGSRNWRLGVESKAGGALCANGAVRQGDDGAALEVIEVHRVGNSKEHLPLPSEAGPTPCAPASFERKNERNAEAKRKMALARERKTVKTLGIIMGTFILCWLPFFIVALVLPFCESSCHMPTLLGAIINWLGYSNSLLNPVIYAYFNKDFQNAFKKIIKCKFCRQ
Nature of the experiment: Radioligand binding, 5-HT1A.

Another experiment has as its target D1R (Homo sapiens, UniProt P21728). Nature of the experiment: Radioligand binding, D1R.
The next experiment deals with 5-HT5A (Homo sapiens, UniProt P47898). In words: Radioligand binding, 5-HT5A.
A further experiment has as its target T3, 5-HT3 (Homo sapiens, UniProt P46098).
T3 sequence (P46098 24-478): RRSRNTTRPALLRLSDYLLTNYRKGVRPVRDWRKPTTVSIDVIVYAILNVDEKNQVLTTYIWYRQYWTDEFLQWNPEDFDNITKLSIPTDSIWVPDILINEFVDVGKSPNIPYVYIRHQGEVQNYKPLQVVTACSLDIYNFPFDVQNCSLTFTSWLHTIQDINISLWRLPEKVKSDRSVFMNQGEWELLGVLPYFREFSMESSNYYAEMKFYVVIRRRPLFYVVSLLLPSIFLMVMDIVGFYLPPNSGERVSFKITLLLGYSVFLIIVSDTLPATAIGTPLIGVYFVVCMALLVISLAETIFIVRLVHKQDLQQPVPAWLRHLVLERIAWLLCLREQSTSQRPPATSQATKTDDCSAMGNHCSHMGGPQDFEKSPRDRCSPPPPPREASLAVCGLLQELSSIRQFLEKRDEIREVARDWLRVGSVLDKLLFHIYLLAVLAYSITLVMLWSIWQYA
In words: Radioligand binding, 5-HT3.

The target in the next experiment is 5-HT6 (Homo sapiens, UniProt P50406). In words: Radioligand binding, 5-HT6.
For experiment [1], the target named is T4, human D2Rlong (Homo sapiens, UniProt P14416). In words: cell-based. The following applies: for Gαi1-Gγ2 dissociation BRET partial agonist activity relative to quinpirole: HEK293T cells.
Experiment [2] has as its target T4, human D2Rlong. In words: DiscoverX PathHunter D2R β-arrestin-2 recruitment assay. Type of experiment: cell-based. Particulars: D2R-expressing CHO cells; up to 10 µM; n=1, performed in duplicate.
Setting [3] is: normalized to maximum cAMP inhibition by quinpirole (100%).
Where [4] appears, read: read-out: cAMP Emax (%), HEK293T cells, GloSensor-22F, normalized to maximum cAMP inhibition by quinpirole (100%).
Setting [5] is: Binding affinity Ki (nM), 5-HT2B.
[6] abbreviates: Binding affinity Ki (nM), 5-HT1A.

Sequence of D5R (P21918 whole entry): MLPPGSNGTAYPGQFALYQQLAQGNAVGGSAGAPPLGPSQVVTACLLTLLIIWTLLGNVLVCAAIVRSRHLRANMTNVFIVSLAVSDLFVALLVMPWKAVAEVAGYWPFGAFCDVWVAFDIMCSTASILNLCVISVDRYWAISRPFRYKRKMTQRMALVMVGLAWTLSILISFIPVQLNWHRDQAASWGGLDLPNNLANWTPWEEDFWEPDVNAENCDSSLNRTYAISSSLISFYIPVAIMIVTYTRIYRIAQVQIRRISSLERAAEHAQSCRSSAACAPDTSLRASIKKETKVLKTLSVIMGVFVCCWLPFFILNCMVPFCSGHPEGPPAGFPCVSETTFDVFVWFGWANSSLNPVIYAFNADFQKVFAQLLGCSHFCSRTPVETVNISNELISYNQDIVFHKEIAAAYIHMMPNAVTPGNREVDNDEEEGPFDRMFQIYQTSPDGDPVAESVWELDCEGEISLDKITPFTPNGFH
Sequence of 5-HT1B (P28222 whole entry, species assumed): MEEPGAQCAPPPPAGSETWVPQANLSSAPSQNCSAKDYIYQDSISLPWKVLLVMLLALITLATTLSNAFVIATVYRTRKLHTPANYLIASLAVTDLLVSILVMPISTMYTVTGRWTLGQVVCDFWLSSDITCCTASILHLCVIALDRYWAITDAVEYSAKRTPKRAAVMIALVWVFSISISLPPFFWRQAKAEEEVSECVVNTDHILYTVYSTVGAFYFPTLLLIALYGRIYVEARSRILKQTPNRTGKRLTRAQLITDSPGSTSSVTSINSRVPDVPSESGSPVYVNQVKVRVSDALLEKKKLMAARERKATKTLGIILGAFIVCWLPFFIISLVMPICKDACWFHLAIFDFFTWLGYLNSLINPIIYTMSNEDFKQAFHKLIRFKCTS
Sequence of 5-HT1D (P28221 whole entry, species assumed): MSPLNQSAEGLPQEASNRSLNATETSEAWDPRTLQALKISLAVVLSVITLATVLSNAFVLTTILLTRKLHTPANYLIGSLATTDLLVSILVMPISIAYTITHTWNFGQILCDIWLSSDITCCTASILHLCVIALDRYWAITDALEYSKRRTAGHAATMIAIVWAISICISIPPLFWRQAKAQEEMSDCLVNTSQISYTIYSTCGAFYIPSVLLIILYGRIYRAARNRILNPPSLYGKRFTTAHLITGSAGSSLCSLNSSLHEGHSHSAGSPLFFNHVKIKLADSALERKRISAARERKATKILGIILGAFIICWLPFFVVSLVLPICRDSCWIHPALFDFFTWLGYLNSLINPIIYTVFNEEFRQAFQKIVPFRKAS
Sequence of mouse D2Long (P61168 whole entry): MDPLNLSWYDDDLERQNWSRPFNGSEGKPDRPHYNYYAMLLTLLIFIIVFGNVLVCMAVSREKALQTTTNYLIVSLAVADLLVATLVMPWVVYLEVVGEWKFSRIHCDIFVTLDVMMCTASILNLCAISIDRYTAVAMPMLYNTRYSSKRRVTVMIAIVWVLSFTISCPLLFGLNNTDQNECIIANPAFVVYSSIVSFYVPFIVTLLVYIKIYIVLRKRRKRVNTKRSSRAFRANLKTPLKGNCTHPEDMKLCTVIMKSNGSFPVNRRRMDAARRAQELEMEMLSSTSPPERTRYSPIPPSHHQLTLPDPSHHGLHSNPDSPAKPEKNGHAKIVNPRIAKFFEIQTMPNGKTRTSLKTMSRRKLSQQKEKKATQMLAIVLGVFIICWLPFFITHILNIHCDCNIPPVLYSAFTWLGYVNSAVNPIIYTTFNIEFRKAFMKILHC
Sequence of hD2L receptors (P14416 whole entry): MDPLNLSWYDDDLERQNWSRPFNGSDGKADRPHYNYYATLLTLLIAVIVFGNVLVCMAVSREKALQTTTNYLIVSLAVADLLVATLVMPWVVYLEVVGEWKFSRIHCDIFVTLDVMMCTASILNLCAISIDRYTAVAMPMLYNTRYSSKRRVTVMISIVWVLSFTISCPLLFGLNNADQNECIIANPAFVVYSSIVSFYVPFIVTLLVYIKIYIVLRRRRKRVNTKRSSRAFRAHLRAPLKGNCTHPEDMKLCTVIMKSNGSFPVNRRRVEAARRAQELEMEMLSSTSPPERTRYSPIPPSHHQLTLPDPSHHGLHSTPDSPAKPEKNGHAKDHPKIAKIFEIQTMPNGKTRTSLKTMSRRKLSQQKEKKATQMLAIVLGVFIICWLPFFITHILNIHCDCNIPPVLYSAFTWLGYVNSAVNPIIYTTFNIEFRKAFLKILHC
Sequence of D2R (P14416 whole entry): as above
T4 sequence (P14416 whole entry): as above
Sequence of D2L receptors (P14416 whole entry): as above
Sequence of D1R (P21728 whole entry): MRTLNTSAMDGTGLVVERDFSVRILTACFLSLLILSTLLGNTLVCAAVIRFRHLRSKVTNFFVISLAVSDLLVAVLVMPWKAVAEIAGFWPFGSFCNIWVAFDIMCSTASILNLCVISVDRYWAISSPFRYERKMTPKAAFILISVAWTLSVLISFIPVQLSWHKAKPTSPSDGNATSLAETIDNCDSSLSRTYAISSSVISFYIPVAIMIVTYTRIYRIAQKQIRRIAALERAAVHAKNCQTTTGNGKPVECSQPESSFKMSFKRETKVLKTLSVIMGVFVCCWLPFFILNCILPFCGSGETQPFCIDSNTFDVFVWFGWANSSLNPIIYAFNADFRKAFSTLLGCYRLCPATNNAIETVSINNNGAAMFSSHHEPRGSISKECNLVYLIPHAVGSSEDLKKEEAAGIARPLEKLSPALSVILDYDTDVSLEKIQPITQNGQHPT
Sequence of 5-HT2A (P28223 whole entry, species assumed): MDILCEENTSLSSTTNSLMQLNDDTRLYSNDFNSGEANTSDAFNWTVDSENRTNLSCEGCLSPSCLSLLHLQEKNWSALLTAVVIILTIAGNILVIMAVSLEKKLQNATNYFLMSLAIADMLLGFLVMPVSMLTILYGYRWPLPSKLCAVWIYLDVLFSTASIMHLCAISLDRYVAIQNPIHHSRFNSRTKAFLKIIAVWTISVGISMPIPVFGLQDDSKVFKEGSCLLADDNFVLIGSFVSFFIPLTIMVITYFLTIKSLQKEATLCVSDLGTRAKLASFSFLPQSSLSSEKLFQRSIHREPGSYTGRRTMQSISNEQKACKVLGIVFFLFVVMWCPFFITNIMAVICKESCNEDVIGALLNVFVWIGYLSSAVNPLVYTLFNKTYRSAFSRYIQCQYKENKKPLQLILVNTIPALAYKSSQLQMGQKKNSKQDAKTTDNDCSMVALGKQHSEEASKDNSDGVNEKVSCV
Sequence of D3R (P35462 whole entry): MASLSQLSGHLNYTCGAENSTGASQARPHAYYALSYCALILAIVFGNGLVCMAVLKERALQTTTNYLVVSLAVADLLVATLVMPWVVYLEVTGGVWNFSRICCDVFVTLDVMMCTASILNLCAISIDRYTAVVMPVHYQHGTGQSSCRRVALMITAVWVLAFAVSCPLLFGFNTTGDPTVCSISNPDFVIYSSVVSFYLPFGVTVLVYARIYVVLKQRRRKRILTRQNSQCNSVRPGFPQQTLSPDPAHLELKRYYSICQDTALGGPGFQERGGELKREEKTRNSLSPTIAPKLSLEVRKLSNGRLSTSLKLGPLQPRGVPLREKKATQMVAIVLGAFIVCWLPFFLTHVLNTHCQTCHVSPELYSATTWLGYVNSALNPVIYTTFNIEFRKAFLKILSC
Sequence of 5-HT7 (P34969 whole entry, species assumed): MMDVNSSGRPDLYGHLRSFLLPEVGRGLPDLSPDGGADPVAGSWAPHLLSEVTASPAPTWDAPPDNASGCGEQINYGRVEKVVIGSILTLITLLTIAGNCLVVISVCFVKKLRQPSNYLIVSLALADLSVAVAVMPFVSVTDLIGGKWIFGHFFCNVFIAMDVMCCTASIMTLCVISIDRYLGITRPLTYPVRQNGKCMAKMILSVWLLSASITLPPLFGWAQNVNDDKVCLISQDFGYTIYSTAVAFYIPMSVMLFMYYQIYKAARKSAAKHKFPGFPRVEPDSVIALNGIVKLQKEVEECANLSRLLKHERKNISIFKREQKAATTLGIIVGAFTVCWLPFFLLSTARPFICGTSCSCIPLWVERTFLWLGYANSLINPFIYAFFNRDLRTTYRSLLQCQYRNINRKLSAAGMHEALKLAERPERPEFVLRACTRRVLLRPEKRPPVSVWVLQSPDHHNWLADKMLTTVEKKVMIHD
Sequence of 5-HT2B (P41595 whole entry, species assumed): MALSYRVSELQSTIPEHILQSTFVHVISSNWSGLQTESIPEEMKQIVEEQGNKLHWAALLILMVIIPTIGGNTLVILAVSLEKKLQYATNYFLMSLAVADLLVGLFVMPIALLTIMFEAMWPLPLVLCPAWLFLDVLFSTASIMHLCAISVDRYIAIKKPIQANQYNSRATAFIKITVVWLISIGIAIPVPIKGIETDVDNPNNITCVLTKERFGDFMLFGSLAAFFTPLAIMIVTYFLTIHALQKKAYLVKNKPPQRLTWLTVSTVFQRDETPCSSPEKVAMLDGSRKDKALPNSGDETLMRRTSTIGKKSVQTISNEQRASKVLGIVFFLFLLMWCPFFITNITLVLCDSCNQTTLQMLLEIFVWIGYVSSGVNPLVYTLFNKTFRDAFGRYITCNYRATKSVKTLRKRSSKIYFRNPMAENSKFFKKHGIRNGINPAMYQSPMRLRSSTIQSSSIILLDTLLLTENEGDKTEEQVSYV
Sequence of 5-HT5A (P47898 whole entry, species assumed): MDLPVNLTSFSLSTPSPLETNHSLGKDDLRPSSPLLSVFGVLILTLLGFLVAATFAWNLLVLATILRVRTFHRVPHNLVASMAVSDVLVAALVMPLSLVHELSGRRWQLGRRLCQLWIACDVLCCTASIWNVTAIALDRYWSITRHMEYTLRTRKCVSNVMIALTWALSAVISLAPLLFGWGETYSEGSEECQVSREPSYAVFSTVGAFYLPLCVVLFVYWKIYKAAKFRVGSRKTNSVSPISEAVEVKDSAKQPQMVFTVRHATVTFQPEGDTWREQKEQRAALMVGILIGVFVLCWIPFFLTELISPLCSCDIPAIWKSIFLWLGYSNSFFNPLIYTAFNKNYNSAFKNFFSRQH

Turning to `CNc1nc2cc(OCCCCN3CCN(c4cccc(Cl)c4Cl)CC3)ccc2s1` [Compound 24, 5-(4-(4-(2,3-Dichlorophenyl)piperazin-1-yl)butoxy)-N methylbenzo[d]thiazol-2-amine], the Ki (commonly a measure of affinity in units of concentration, obtained from inhibition or displacement) at 5-HT2A (read-out: Binding affinity Ki (nM), 5-HT2A, radioligand binding) worked out at 72 nM; on D3R (read-out: Binding affinity Ki (nM), D3R, radioligand binding), 35 nM; on 5-HT1B (read-out: Binding affinity Ki (nM), 5-HT1B, radioligand binding) it was 1400 nM; at 5-HT2B (read-out: Binding affinity Ki (nM), 5-HT2B), 12 nM; on 5-HT1D (read-out: Binding affinity Ki (nM), 5-HT1D, radioligand binding) it was 390 nM; at D4R (read-out: Binding affinity Ki (nM), D4R, radioligand binding), 280 nM. Besides, the Ki at D2R (read-out: Binding affinity Ki (nM), D2R, radioligand binding) is 60 nM; on 5-HT7 (read-out: Binding affinity Ki (nM), 5-HT7, radioligand binding), 100 nM; on D5R (read-out: Binding affinity Ki (nM), D5R, radioligand binding), 1500 nM; on 5-HT1A (read-out: Binding affinity Ki (nM), 5-HT1A), 55 nM; on D1R (read-out: Binding affinity Ki (nM), D1R, radioligand binding) it was 1100 nM. For the same compound, the “β-arrestin Emax (%)” value at D2L receptors (Tango assay, HTLA cells, normalized to quinpirole (100%)) was less than 20%. Moreover, at mouse D2Long, the “β-arrestin-2 recruitment agonist activity in BRET assay” value was “not active; also recorded: no β-arrestin recruitment”. In addition, the “cAMP Emax (%)” value at hD2L receptors (setting [3]) was 40%.

In the case of `CCc1nc2cc(OCCCCN3CCC(c4cccc(Cl)c4Cl)CC3)ccc2s1` [Compound 46, 5-(4-(4-(2,3-Dichlorophenyl)piperidin-1-yl)butoxy)-2-ethylbenzo[d]thiazole], the Ki at 5-HT2A stood at 140 nM; on D3R it was 100 nM; at 5-HT2B (setting [5]), 71 nM; at 5-HT1D it was 820 nM; on D4R, 1800 nM; on 5-HT5A it was 1600 nM. Besides, the Ki on D2R was determined as 170 nM; at 5-HT1A (setting [6]), 100 nM; at D1R, 1700 nM; on 5-HT3, 1500 nM. Also, the Emax (in general, the greatest response seen or fitted, relative to the assay's reference) on D2L receptors was less than 20%; on hD2L receptors (setting [4]) it was 40 to 50%. The “β-arrestin-2 recruitment agonist activity in BRET assay” value at mouse D2Long is “not active; also recorded: no β-arrestin recruitment”. The “cAMP Emax (%)” value at hD2L receptors (setting [3]) is 43%.

As to `CNc1nc2cc(OCCCCN3CCC(c4cccc(Cl)c4Cl)CC3)ccc2s1` [Compound 54, 5-(4-(4-(2,3-Dichlorophenyl)piperidin-1-yl)butoxy)-N-methylbenzo[d]thiazol-2-amine], the Ki is 70 nM at 5-HT2A; 69 nM on D3R; 2600 nM on 5-HT1B; less than 20 nM on 5-HT2B (setting [5]); 410 nM on 5-HT1D; 430 nM at D4R. Further, the Ki on D2R stood at 99 nM; at 5-HT6, 410 nM; on D5R it was 1800 nM; at 5-HT1A (setting [6]), 66 nM; at D1R, 1100 nM. Moreover, the “β-arrestin-2 recruitment agonist activity in BRET assay” value on mouse D2Long is listed as “not active; also recorded: no β-arrestin recruitment”. Besides, the Emax on hD2L receptors (setting [4]) was in the range of 40 to 50%.

Consider `CC(C)c1nc2cc(OCCCCN3CCN(c4cccc5c4OCCO5)CC3)ccc2s1` [Compound 53, 5-(4-(4-(2,3-Dihydrobenzo[b][1,4]dioxin-5-yl)piperazin-1-yl)butoxy)-2-isopropylbenzo[d]thiazole], for which the Ki on 5-HT2A was 29 nM; on D3R, 31 nM; at 5-HT1B, 420 nM; at 5-HT1D it was 100 nM; at D4R it was 77 nM; on D2R, 30 nM. The inhibitory constant (Ki) was 31 nM on 5-HT7; 1100 nM at D5R; 1.4 nM on 5-HT1A (setting [6]); 2000 nM on D1R; 2600 nM at 5-HT3. Besides, the Emax was less than 20% on D2L receptors and 30 to 40% at hD2L receptors (setting [4]). Further, the EC50 (commonly the concentration giving half of the maximal effect) at human D2Rlong [1] is 4.6 nM. Moreover, the “Gαi1-Gγ2 dissociation BRET partial agonist activity relative to quinpirole” value on human D2Rlong [1] was found to be 47%. Besides, the “β-arrestin-2 recruitment agonist activity in BRET assay” value at mouse D2Long was “not active; also recorded: no β-arrestin recruitment”. For the same compound, the “β-arrestin recruitment activity as measured by DiscoverX” value (shortened to “β-arrestin recruitment activity”) at human D2Rlong [2] is “lack of β-arrestin-2 recruitment activity; also recorded: no activity”.

Take `Oc1c(CN2CCN(c3ccccn3)CC2)cc(Cl)c2cccnc12` [Compound 59, 5-Chloro-7-((4-(pyridin-2-yl)piperazin-1-yl)methyl)quinolin-8-ol, reference compound]: the Emax at D2L receptors was 67%; at mouse D2Long (HEK-293T, read-out: β-arrestin-2 recruitment BRET Emax (% of quinpirole)), 68%; at hD2L receptors (read-out: cAMP Emax (%)) it was 63%. For the same compound, the EC50 on D2L receptors (Tango assay, HTLA cells) is 102 nM and 46 nM. In addition, on human D2Rlong [2], the “β-arrestin recruitment activity” value is “lack of β-arrestin-2 recruitment activity; also recorded: no activity”.

Regarding `Cc1nc2cc(OCCCCN3CCN(c4cccc(Cl)c4Cl)CC3)ccc2s1` [Compound 1, 5-(4-(4-(2,3-Dichlorophenyl)piperazin-1-yl)butoxy)-2-methylbenzo[d]thiazole], the Ki at 5-HT2A was 120 nM; on D3R, 13 nM; at 5-HT1B, 1700 nM; at 5-HT2B (setting [5]) it was 38 nM; at 5-HT1D it was 320 nM; at D4R it was 82 nM. For the same compound, the Ki stood at 150 nM on D2R, 140 nM on 5-HT7 and 86 nM at 5-HT1A (setting [6]). Further, the figures for the Emax at D2L receptors and on hD2L receptors (setting [4]) were 23% and 50%, respectively. For the same compound, the EC50 amounted to 13 nM on D2L receptors (Tango assay, HTLA cells) and 3.6 nM at human D2Rlong [1]. Also, at human D2Rlong [1], the “Gαi1-Gγ2 dissociation BRET partial agonist activity relative to quinpirole” value was found to be 57%. The IC50 (commonly the concentration needed to halve the response being measured) against mouse D2Long was determined as 18 nM. Besides, the “antagonist activity on dopamine-stimulated β-arrestin-2 recruitment (BRET)” value on mouse D2Long (antagonist mode) was “full antagonist activity”. On mouse D2Long, the “β-arrestin-2 recruitment agonist activity in BRET assay” value is listed as “no activity”. In addition, at hD2L receptors (antagonist mode, Figure S2), the “inhibition of dopamine-stimulated D2R G protein activation as measured by cAMP inhibition” value is on record as “partial inhibition”. For the same compound, at human D2Rlong [2], the “β-arrestin recruitment activity” value is reported as “lack of β-arrestin-2 recruitment activity; also recorded: no activity”.
